Measurements reported in ChEMBL document CHEMBL1201861, “Genomics of Drug Sensitity in Cancer screening data, Wellcome Trust Sanger Institute”.

Key:
Experiment in all cases: cells
NCI-H2126 = assay type: functional, cell-based, Homo sapiens; conditions: Homo sapiens, NCI-H2126;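 further: growth inhibition of the cancer cell line, determined with a cell viability readout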
Description: SANGER: Inhibition of human NCI-H2126 cell growth in a cell viability assay.

GOTO = assay type: functional, cell-based, Homo sapiens; conditions: Homo sapiens, GOTO;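 further: growth inhibition of GOTO cells, read out by a cell viability assay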
Description: SANGER: Inhibition of human GOTO cell growth in a cell viability assay.

L-428 = assay type: functional, cell-based, Homo sapiens; conditions: Homo sapiens, L-428
Description: SANGER: Inhibition of human L-428 cell growth in a cell viability assay.

D-502MG = assay type: functional, cell-based, Homo sapiens; conditions: Homo sapiens, D-502MG
Description: SANGER: Inhibition of human D-502MG cell growth in a cell viability assay.

TE-12 = assay type: functional, cell-based, Homo sapiens; conditions: Homo sapiens, TE-12;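 further: growth inhibition of TE-12 cells, read out by a cell viability assay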
Description: SANGER: Inhibition of human TE-12 cell growth in a cell viability assay.

Lu-65 = assay type: functional, cell-based, Homo sapiens; conditions: Homo sapiens, Lu-65;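 further: growth inhibition of Lu-65 cancer cells, read out by a cell viability assay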
Description: SANGER: Inhibition of human LU-65 cell growth in a cell viability assay.

SK-MEL-1 = assay type: functional, cell-based, Homo sapiens; conditions: Homo sapiens, SK-MEL-1;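 further: growth inhibition of human SK-MEL-1 cells, read out by a cell viability assay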
Description: SANGER: Inhibition of human SK-MEL-1 cell growth in a cell viability assay.

ML-2 = assay type: functional, cell-based, Homo sapiens; conditions: Homo sapiens, ML-2;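 further: growth inhibition of ML-2 cells, measured with a cell viability readout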
Description: SANGER: Inhibition of human ML-2 cell growth in a cell viability assay.

SF-126 = assay type: functional, cell-based, Homo sapiens; conditions: Homo sapiens, SF-126;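 further: growth inhibition of human SF126 cells, read out with a cell viability assay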
Description: SANGER: Inhibition of human SF126 cell growth in a cell viability assay.

CTV-1 = assay type: functional, cell-based, Homo sapiens; conditions: Homo sapiens, CTV-1;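 further: growth inhibition of the cell line, read out with a cell viability assay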
Description: SANGER: Inhibition of human CTV-1 cell growth in a cell viability assay.

SCH = assay type: functional, cell-based, Homo sapiens; conditions: Homo sapiens, SCH;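 further: growth inhibition of human SCH cells, read out in a cell viability assay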
Description: SANGER: Inhibition of human SCH cell growth in a cell viability assay.

GCIY = assay type: functional, cell-based, Homo sapiens; conditions: Homo sapiens, GCIY;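 further: growth inhibition of the human GCIY cell line, read out by a cell viability assay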
Description: SANGER: Inhibition of human GCIY cell growth in a cell viability assay.

ES8 = assay type: functional, cell-based, Homo sapiens; conditions: Homo sapiens, ES8;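 further: growth inhibition of human ES8 cells, read out with a cell viability assay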
Description: SANGER: Inhibition of human ES8 cell growth in a cell viability assay.

GT3TKB = assay type: functional, cell-based, Homo sapiens; conditions: Homo sapiens, GT3TKB;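 further: growth inhibition of the cell line, read out with a cell viability assay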
Description: SANGER: Inhibition of human GT3TKB cell growth in a cell viability assay.

BV-173 = assay type: functional, cell-based, Homo sapiens; conditions: Homo sapiens, BV-173
Description: SANGER: Inhibition of human BV-173 cell growth in a cell viability assay.

NCI-H1770 = assay type: functional, cell-based, Homo sapiens; conditions: Homo sapiens, NCI-H1770;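 further: growth inhibition of NCI-H1770 cells determined with a viability readout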
Description: SANGER: Inhibition of human NCI-H1770 cell growth in a cell viability assay.

EW-3 = assay type: functional, cell-based, Homo sapiens; conditions: Homo sapiens, EW-3;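 further: cell viability assay read-out, IC50 reflects inhibition of growth of the EW-3 cells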
Description: SANGER: Inhibition of human EW-3 cell growth in a cell viability assay.

KLE = assay type: functional, cell-based, Homo sapiens; conditions: Homo sapiens, KLE;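 further: growth inhibition of human KLE cells, read out with a cell viability assay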
Description: SANGER: Inhibition of human KLE cell growth in a cell viability assay.

NB69 = assay type: functional, cell-based, Homo sapiens; conditions: Homo sapiens, NB69;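 further: growth inhibition of NB69 cells, determined by a cell viability assay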
Description: SANGER: Inhibition of human NB69 cell growth in a cell viability assay.

NCI-H1299 = assay type: functional, cell-based, Homo sapiens; conditions: Homo sapiens, NCI-H1299;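 further: growth inhibition of human NCI-H1299 cells, read out by a cell viability assay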
Description: SANGER: Inhibition of human NCI-H1299 cell growth in a cell viability assay.

NEC8 = assay type: functional, cell-based, Homo sapiens; conditions: Homo sapiens, NEC8;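 further: growth inhibition of human NEC8 cells, read out by a cell viability assay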
Description: SANGER: Inhibition of human NEC8 cell growth in a cell viability assay.

Calu-6 = assay type: functional, cell-based, Homo sapiens; conditions: Homo sapiens, Calu-6;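 further: growth of human Calu-6 cells, read out by a cell viability assay, IC50 marking inhibition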
Description: SANGER: Inhibition of human Calu-6 cell growth in a cell viability assay.

ETK-1 = assay type: functional, cell-based, Homo sapiens; conditions: Homo sapiens, ETK-1;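 further: growth inhibition of human ETK-1 cells, read out with a cell viability assay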
Description: SANGER: Inhibition of human ETK-1 cell growth in a cell viability assay.

A4-Fuk = assay type: functional, cell-based, Homo sapiens; conditions: Homo sapiens, A4-Fuk;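 further: growth inhibition of A4-Fuk cells, read out by a cell viability assay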
Description: SANGER: Inhibition of human A4-Fuk cell growth in a cell viability assay.

BE-13 = assay type: functional, cell-based, Homo sapiens; conditions: Homo sapiens, BE-13;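 further: growth inhibition of human BE-13 cells, measured with a cell viability assay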
Description: SANGER: Inhibition of human BE-13 cell growth in a cell viability assay.

NCI-N87 = assay type: functional, cell-based, Homo sapiens; conditions: Homo sapiens, NCI-N87;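 further: growth inhibition of human NCI-N87 cells, read out with a cell viability assay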
Description: SANGER: Inhibition of human NCI-N87 cell growth in a cell viability assay.

HCE-4 = assay type: functional, cell-based, Homo sapiens; conditions: Homo sapiens, HCE-4;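 further: cell viability assay measuring inhibition of growth in the human HCE-4 cell line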
Description: SANGER: Inhibition of human HCE-4 cell growth in a cell viability assay.

NCI-H209 = assay type: functional, cell-based, Homo sapiens; conditions: Homo sapiens, NCI-H209;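 further: growth inhibition of human NCI-H209 cells, measured by a cell viability assay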
Description: SANGER: Inhibition of human NCI-H209 cell growth in a cell viability assay.

ATN-1 = assay type: functional, cell-based, Homo sapiens; conditions: Homo sapiens, ATN-1;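 further: growth inhibition of human ATN-1 cells, read out with a cell viability assay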
Description: SANGER: Inhibition of human ATN-1 cell growth in a cell viability assay.

LB1047-RCC = assay type: functional, cell-based, Homo sapiens; conditions: Homo sapiens, LB1047-RCC;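 further: inhibition of cell growth, determined with a cell viability assay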
Description: SANGER: Inhibition of human LB1047-RCC cell growth in a cell viability assay.

AM-38 = assay type: functional, cell-based, Homo sapiens; conditions: Homo sapiens, AM-38;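 further: growth inhibition of AM-38 cells of human origin, read out by a cell viability assay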
Description: SANGER: Inhibition of human AM-38 cell growth in a cell viability assay.

Becker = assay type: functional, cell-based, Homo sapiens; conditions: Homo sapiens, Becker;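 further: growth inhibition of Becker cells, read out with a cell viability assay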
Description: SANGER: Inhibition of human Becker cell growth in a cell viability assay.

LU-139 = assay type: functional, cell-based, Homo sapiens; conditions: Homo sapiens, LU-139
Description: SANGER: Inhibition of human LU-139 cell growth in a cell viability assay.

ES6 = assay type: functional, cell-based, Homo sapiens; conditions: Homo sapiens, ES6;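 further: growth inhibition of human ES6 cells, read out with a cell viability assay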
Description: SANGER: Inhibition of human ES6 cell growth in a cell viability assay.

GI-1 = assay type: functional, cell-based, Homo sapiens; conditions: Homo sapiens, GI-1;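 further: growth inhibition of human GI-1 cells, measured with a cell viability readout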
Description: SANGER: Inhibition of human GI-1 cell growth in a cell viability assay.

SHP77 = assay type: functional, cell-based, Homo sapiens, SHP-77; conditions: Homo sapiens, SHP77;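 further: growth inhibition of human SHP-77 cells measured by a cell viability assay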
Description: SANGER: Inhibition of human SHP-77 cell growth in a cell viability assay.

SK-LMS-1 = assay type: functional, cell-based, Homo sapiens; conditions: Homo sapiens, SK-LMS-1;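 further: growth inhibition of human SK-LMS-1 cells, read out with a cell viability assay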
Description: SANGER: Inhibition of human SK-LMS-1 cell growth in a cell viability assay.

NB13 = assay type: functional, cell-based, Homo sapiens; conditions: Homo sapiens, NB13;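 further: cell viability readout measuring growth inhibition of human NB13 cells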
Description: SANGER: Inhibition of human NB13 cell growth in a cell viability assay.

NCI-H226 = assay type: functional, cell-based, Homo sapiens; conditions: Homo sapiens, NCI-H226;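 further: cell viability read-out used to gauge growth inhibition of the cells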
Description: SANGER: Inhibition of human NCI-H226 cell growth in a cell viability assay.

HCE-T = assay type: functional, cell-based, Homo sapiens; conditions: Homo sapiens, HCE-T;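 further: cell viability assay read-out, reporting inhibition of HCE-T cell growth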
Description: SANGER: Inhibition of human HCE-T cell growth in a cell viability assay.

MZ1-PC = assay type: functional, cell-based, Homo sapiens; conditions: Homo sapiens, MZ1-PC;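 further: cell viability assay measuring growth inhibition of human MZ1-PC cells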
Description: SANGER: Inhibition of human MZ1-PC cell growth in a cell viability assay.

NCI-H446 = assay type: functional, cell-based, Homo sapiens; conditions: Homo sapiens, NCI-H446;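 further: growth inhibition of NCI-H446 cells determined by a cell viability assay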
Description: SANGER: Inhibition of human NCI-H446 cell growth in a cell viability assay.

RCC10RGB = assay type: functional, cell-based, Homo sapiens; conditions: Homo sapiens, RCC10RGB;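 further: growth inhibition of human RCC10RGB cells, read out by a cell viability assay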
Description: SANGER: Inhibition of human RCC10RGB cell growth in a cell viability assay.

HEL = assay type: functional, cell-based, Homo sapiens; conditions: Homo sapiens, HEL;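 further: growth inhibition of HEL cells, read out with a cell viability assay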
Description: SANGER: Inhibition of human HEL cell growth in a cell viability assay.

COLO-800 = assay type: functional, cell-based, Homo sapiens; conditions: Homo sapiens, COLO-800;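 further: growth inhibition of COLO-800 cells, read out with a cell viability assay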
Description: SANGER: Inhibition of human COLO-800 cell growth in a cell viability assay.

NCI-H1650 = assay type: functional, cell-based, Homo sapiens; conditions: Homo sapiens, NCI-H1650;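 further: growth inhibition of human NCI-H1650 cells measured by a cell viability assay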
Description: SANGER: Inhibition of human NCI-H1650 cell growth in a cell viability assay.

KP-N-YS = assay type: functional, cell-based, Homo sapiens; conditions: Homo sapiens, KP-N-YS;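 further: cell viability assay measuring inhibition of cell line growth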
Description: SANGER: Inhibition of human KP-N-YS cell growth in a cell viability assay.

EW-1 = assay type: functional, cell-based, Homo sapiens; conditions: Homo sapiens, EW-1;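 further: growth inhibition of the human EW-1 cell line, read out by a cell viability assay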
Description: SANGER: Inhibition of human EW-1 cell growth in a cell viability assay.

NB10 = assay type: functional, cell-based, Homo sapiens; conditions: Homo sapiens, NB10;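 further: growth inhibition of NB10 cells, read out by a cell viability assay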
Description: SANGER: Inhibition of human NB10 cell growth in a cell viability assay.

CN(C)C(=N)NC(=N)N [METFORMIN] gave an IC50 (NCI-H2126) greater than 20000 µM, an IC50 (GOTO) greater than 20000 µM and an IC50 (L-428) of 7.76 mM. It also gave an IC50 (D-502MG) greater than 20000 µM, an IC50 (TE-12) greater than 20 mM and an IC50 (Lu-65) of 511 µM. The IC50 (SK-MEL-1) was 11.8 mM, the IC50 (ML-2) was 1.49 mM and the IC50 (SF-126) was greater than 20000 µM. The IC50 (CTV-1) was 1.97 mM, the IC50 (SCH) was greater than 20000 µM and the IC50 (GCIY) was greater than 20000 µM. For the same molecule, the IC50 (ES8) was 17100 µM, the IC50 (GT3TKB) was greater than 20000 µM and the IC50 (BV-173) was 3.02 mM. The IC50 (NCI-H1770) was 4.1 mM, the IC50 (EW-3) was 12.2 mM and the IC50 (KLE) was greater than 20000 µM. The IC50 (NB69) was greater than 20000 µM, the IC50 (NCI-H1299) was 10100 µM and the IC50 (NEC8) was 16000 µM. The IC50 (Calu-6) was 15200 µM, the IC50 (ETK-1) was 14100 µM and the IC50 (A4-Fuk) was greater than 20 mM. It also gave an IC50 (BE-13) of 18 mM, an IC50 (NCI-N87) greater than 20000 µM and an IC50 (HCE-4) of 11000 µM. The IC50 (NCI-H209) was 925 µM, the IC50 (ATN-1) was 8.65 mM and the IC50 (LB1047-RCC) was 16400 µM. For the same molecule, the IC50 (AM-38) was greater than 20000 µM, the IC50 (Becker) was greater than 20000 µM and the IC50 (LU-139) was greater than 20 mM. For the same molecule, the IC50 (ES6) was greater than 20000 µM, the IC50 (GI-1) was greater than 20000 µM and the IC50 (SHP77) was greater than 20000 µM.
With CS(=O)(=O)c1ccc(C(=O)Nc2ccc(Cl)c(-c3ccccn3)c2)c(Cl)c1 [VISMODEGIB] the IC50 (NCI-H2126) was greater than 10 µM, the IC50 (SK-LMS-1) was greater than 10000 nM and the IC50 (NB13) was greater than 10000 nM. The IC50 (GOTO) was greater than 10 µM, the IC50 (L-428) was greater than 0.01 mM and the IC50 (D-502MG) was greater than 10 µM. It also gave an IC50 (TE-12) greater than 0.01 mM, an IC50 (Lu-65) greater than 10 µM and an IC50 (SK-MEL-1) greater than 0.01 mM. For the same molecule, the IC50 (NCI-H226) was greater than 10000 nM, the IC50 (ML-2) was greater than 0.01 mM and the IC50 (HCE-T) was 1320 nM. The IC50 (MZ1-PC) was greater than 10000 nM, the IC50 (SF-126) was greater than 10 µM and the IC50 (CTV-1) was greater than 0.01 mM. For the same molecule, the IC50 (SCH) was greater than 10 µM, the IC50 (GCIY) was greater than 10 µM and the IC50 (NCI-H446) was greater than 10 µM. For the same molecule, the IC50 (ES8) was greater than 10 µM, the IC50 (GT3TKB) was greater than 10 µM and the IC50 (BV-173) was greater than 0.01 mM. For the same molecule, the IC50 (RCC10RGB) was greater than 10 µM, the IC50 (NCI-H1770) was greater than 0.01 mM and the IC50 (KLE) was greater than 10 µM. For the same molecule, the IC50 (NB69) was greater than 10 µM, the IC50 (NCI-H1299) was greater than 10 µM and the IC50 (NEC8) was greater than 10 µM. For the same molecule, the IC50 (Calu-6) was greater than 10 µM, the IC50 (HEL) was greater than 10000 nM and the IC50 (COLO-800) was greater than 10000 nM. For the same molecule, the IC50 (ETK-1) was greater than 10 µM, the IC50 (A4-Fuk) was greater than 0.01 mM and the IC50 (NCI-H1650) was greater than 10 µM. For the same molecule, the IC50 (BE-13) was greater than 0.01 mM, the IC50 (KP-N-YS) was greater than 10 µM and the IC50 (NCI-N87) was greater than 10 µM. The IC50 (HCE-4) was greater than 10 µM, the IC50 (NCI-H209) was greater than 10 µM and the IC50 (ATN-1) was greater than 0.01 mM. It also gave an IC50 (LB1047-RCC) greater than 10 µM, an IC50 (EW-1) greater than 10000 nM and an IC50 (AM-38) greater than 10 µM. The IC50 (Becker) was greater than 10 µM, the IC50 (NB10) was greater than 10000 nM and the IC50 (LU-139) was greater than 0.01 mM. It also gave an IC50 (ES6) greater than 10 µM, an IC50 (GI-1) greater than 10 µM and an IC50 (SHP77) greater than 10 µM.
CC(C)c1ccccc1Cc1cc(C(=O)Nc2ccc(S(=O)(=O)c3ccccc3C(C)(C)C)cc2)c(O)c(O)c1O was tested, and the IC50 (NCI-H2126) was 0.782 µM, the IC50 (SK-LMS-1) was 272 nM and the IC50 (NB13) was 158 nM. For the same molecule, the IC50 (GOTO) was 0.171 µM, the IC50 (D-502MG) was 4.92 µM and the IC50 (NCI-H226) was 2460 nM. The IC50 (HCE-T) was 231 nM, the IC50 (MZ1-PC) was 635 nM and the IC50 (SF-126) was 0.0571 µM. It also gave an IC50 (SCH) of 0.367 µM, an IC50 (GCIY) of 0.0208 µM and an IC50 (ES8) of 0.119 µM. It also gave an IC50 (GT3TKB) of 0.301 µM, an IC50 (RCC10RGB) of 13.8 µM and an IC50 (KLE) of 1.94 µM. For the same molecule, the IC50 (NB69) was 0.877 µM, the IC50 (NCI-H1299) was 0.28 µM and the IC50 (NEC8) was 0.145 µM. It also gave an IC50 (Calu-6) of 0.887 µM, an IC50 (HEL) of 522 nM and an IC50 (COLO-800) of 183 nM. The IC50 (ETK-1) was 0.788 µM, the IC50 (NCI-H1650) was 4.92 µM and the IC50 (NCI-N87) was 2.2 µM. For the same molecule, the IC50 (HCE-4) was 0.469 µM, the IC50 (LB1047-RCC) was 0.319 µM and the IC50 (EW-1) was 227 nM. The IC50 (AM-38) was 0.841 µM, the IC50 (Becker) was 0.242 µM and the IC50 (NB10) was 215 nM. For the same molecule, the IC50 (ES6) was 0.373 µM, the IC50 (GI-1) was 0.128 µM and the IC50 (SHP77) was 0.451 µM.
